Reference: ChEMBL document CHEMBL1201862, “PubChem BioAssay data set” (2004)
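Interpolation was linear, between the two tested concentrations surrounding the appropriate level; five concentrations were tested over 48 hours in 96-well plates. GI50 marks 50% less growth.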 Calls of active or inactive are those of the source. Rule as the data show it: active = GI50 up to about 1.1 µM and inactive = higher.

Assays:
Assay in all cases: NCI-60 cell line screen, 48 h
HOP-62 = system: HOP-62
OVCAR-3 = system: OVCAR-3
HCT-116 = system: HCT-116
CCRF-CEM = system: CCRF-CEM
TK-10 = system: TK-10
M14 = system: M14
MDA-MB-435 = system: MDA-MB-435
SK-MEL-2 = system: SK-MEL-2
UACC-257 = system: UACC-257
MDA-N = system: MDA-N
DU-145 = system: DU-145
OVCAR-4 = system: OVCAR-4
OVCAR-8 = system: OVCAR-8
NCI-H522 = system: NCI-H522
COLO 205 = system: COLO 205
SF-295 = system: SF-295
MCF7 = system: MCF7
K562 = system: K562
T47D = system: T47D
HOP-92 = system: HOP-92

Measured: GI50

COc1cc(/C=C/C(=O)CC(=O)/C=C/c2ccc(OC(=O)CCCCC3CCSS3)c(OC)c2)ccc1OC(=O)CCCCC1CCSS1 (configuration not stated)
inactive: HOP-62 > 100 µM | OVCAR-3 > 100 µM | HCT-116 > 100 µM | CCRF-CEM > 100 µM | TK-10 > 100 µM | M14 > 100 µM | MDA-MB-435 > 100 µM | SK-MEL-2 > 100 µM | UACC-257 > 100 µM | MDA-N > 100 µM | DU-145 > 100 µM | OVCAR-4 > 100 µM | OVCAR-8 > 100 µM | NCI-H522 > 100 µM | COLO 205 > 100 µM | SF-295 > 100 µM | MCF7 > 100 µM | K562 > 100 µM

COc1ccc(-n2c(N)c(C#N)c(C#N)c2-c2cccc([N+](=O)[O-])c2)cc1
inactive: HOP-62 67.5 µM | OVCAR-3 > 100 µM | CCRF-CEM 5.31 µM | TK-10 > 100 µM | M14 > 100 µM | T47D 35.2 µM | MDA-MB-435 > 100 µM | SK-MEL-2 1.77 µM | UACC-257 > 100 µM | DU-145 43.3 µM | OVCAR-4 26.5 µM | OVCAR-8 88.9 µM | NCI-H522 > 100 µM | COLO 205 > 100 µM | SF-295 42.5 µM | MCF7 61.5 µM | HOP-92 15.3 µM | K562 > 100 µM

CCOC(=O)CCN1C(=O)c2ccc(NC(=O)C(=O)O)cc2S1(=O)=O
inactive: HOP-62 > 100 µM | OVCAR-3 > 100 µM | HCT-116 > 100 µM | CCRF-CEM > 100 µM | TK-10 > 100 µM | M14 > 100 µM | MDA-MB-435 > 100 µM | SK-MEL-2 > 100 µM | UACC-257 > 100 µM | MDA-N > 100 µM | DU-145 > 100 µM | OVCAR-4 > 100 µM | OVCAR-8 > 100 µM | NCI-H522 > 100 µM | COLO 205 > 100 µM | SF-295 > 100 µM | MCF7 > 100 µM | HOP-92 > 100 µM | K562 > 100 µM

CCOC(=O)c1c(N2CCCC2)ncn(C)c1=S
inactive: HOP-62 > 100 µM | OVCAR-3 > 100 µM | HCT-116 > 100 µM | CCRF-CEM > 100 µM | TK-10 > 100 µM | M14 > 100 µM | T47D > 100 µM | MDA-MB-435 > 100 µM | SK-MEL-2 > 100 µM | UACC-257 > 100 µM | DU-145 > 100 µM | OVCAR-4 > 100 µM | OVCAR-8 > 100 µM | NCI-H522 > 100 µM | COLO 205 > 100 µM | SF-295 > 100 µM | MCF7 > 100 µM | HOP-92 93.3 µM | K562 > 100 µM

Oc1[nH]c(Nc2ccc(Cl)cc2)nc2ncnc1-2
inactive: HOP-62 > 100 µM | OVCAR-3 > 100 µM | HCT-116 84.3 µM | TK-10 > 100 µM | M14 89.1 µM | T47D 61.7 µM | MDA-MB-435 > 100 µM | SK-MEL-2 > 100 µM | UACC-257 > 100 µM | DU-145 70.1 µM | OVCAR-4 64.7 µM | OVCAR-8 > 100 µM | NCI-H522 90.8 µM | COLO 205 > 100 µM | SF-295 > 100 µM | MCF7 > 100 µM | HOP-92 81.3 µM

CCC(=O)OC1=C(c2ccccc2)Sc2ccc(Cl)cc2-n2cccc21
inactive: HOP-62 > 10 µM | CCRF-CEM 8.89 µM | TK-10 > 10 µM | M14 > 10 µM | T47D > 10 µM | MDA-MB-435 2.22 µM | UACC-257 > 10 µM | DU-145 > 10 µM | OVCAR-4 > 10 µM | OVCAR-8 > 10 µM | COLO 205 > 10 µM | SF-295 9.62 µM | MCF7 7.21 µM | HOP-92 5.78 µM | K562 5.75 µM

CC(C)OC(=O)/C=C/C(=O)O/C=C/[N+](=O)[O-]
inactive: HOP-62 34 µM | OVCAR-3 31.7 µM | HCT-116 17.7 µM | TK-10 32.6 µM | M14 30 µM | T47D 12.7 µM | MDA-MB-435 38.9 µM | SK-MEL-2 20.2 µM | UACC-257 19.9 µM | DU-145 30.4 µM | OVCAR-4 26.9 µM | OVCAR-8 15.7 µM | COLO 205 16.6 µM | SF-295 27.9 µM | MCF7 23 µM | K562 7.64 µM

O=C(O)c1nc2ccc(C(F)(F)F)cc2nc1Nc1ccc(F)cc1
inactive: HOP-62 17.1 µM | OVCAR-3 12.2 µM | HCT-116 15.1 µM | TK-10 36.6 µM | MDA-MB-435 17.6 µM | SK-MEL-2 15.3 µM | UACC-257 22.3 µM | MDA-N 27.5 µM | DU-145 21.2 µM | OVCAR-4 22.6 µM | OVCAR-8 17.2 µM | NCI-H522 6.07 µM | COLO 205 19.5 µM | SF-295 11.5 µM | MCF7 23 µM | K562 11.2 µM

O=C(CCc1ccccc1)ON1C(=S)C(c2ccccc2)(c2ccccc2)N=C1Sc1ccccc1
inactive: HOP-62 41.8 µM | OVCAR-3 60 µM | HCT-116 19.3 µM | CCRF-CEM 20.3 µM | TK-10 89.9 µM | M14 82.6 µM | T47D 59.4 µM | SK-MEL-2 29.8 µM | UACC-257 > 100 µM | DU-145 58.2 µM | OVCAR-4 58.1 µM | OVCAR-8 38.7 µM | COLO 205 35.5 µM | SF-295 31 µM | MCF7 33.7 µM | HOP-92 > 100 µM | K562 36.1 µM

CC(C)=CCN1c2ccccc2NC(=O)CC1C (configuration not stated)
inactive: HOP-62 > 100 µM | OVCAR-3 70.6 µM | CCRF-CEM > 100 µM | TK-10 55.8 µM | M14 > 100 µM | T47D 84.7 µM | MDA-MB-435 > 100 µM | SK-MEL-2 > 100 µM | UACC-257 28.8 µM | DU-145 > 100 µM | OVCAR-4 28.4 µM | OVCAR-8 > 100 µM | NCI-H522 > 100 µM | COLO 205 > 100 µM | SF-295 > 100 µM | MCF7 > 100 µM | HOP-92 38.7 µM | K562 > 100 µM

O=C1/C(=C/c2cccc(Cl)c2)CCCc2ccccc21
inactive: HOP-62 21.6 µM | OVCAR-3 23.7 µM | HCT-116 12.9 µM | CCRF-CEM 10.2 µM | TK-10 18 µM | M14 16.3 µM | MDA-MB-435 16.2 µM | SK-MEL-2 17.4 µM | UACC-257 19.1 µM | MDA-N 16.9 µM | DU-145 19.2 µM | OVCAR-4 15.8 µM | OVCAR-8 18.3 µM | NCI-H522 14.5 µM | COLO 205 20.5 µM | SF-295 17.5 µM | MCF7 6.03 µM | HOP-92 21.1 µM | K562 14.3 µM
